Data reported in patent US20240336574A1 (LATIGO BIOTHERAPEUTICS, INC., priority 2021, published 2024).
Where two headings read alike, the source gives them in different places.

Target: T1, recombinant human NaV1.8 stably transfected HEK cells (Homo sapiens, UniProt Q9Y5Y9)
T1 construct: expressed in transfected cells; host or cells: HEK cells, stably transfected
Assay: Compound profiling on NaV1.8, human NaV1.8 cell line, SyncroPatch384PE automated patch clamp assay (Example 102, first set of compounds, Table 16)
Type: cell-based
Conditions: human NaV1.8 HEK cells, Table 16 (first set of compounds)
Procedure, shortened: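 Automated whole-cell patch clamp on HEK cells precultured at 30 °C one day before recording; CsF-based internal, 140 mM NaCl external. 10-point curve, 20–0.001 μM final, 0.1% DMSO, 5 min exposure. IC50 for resting (P1, −120 mV hold) and inactivated (P2, after 10 s at −40 mV) block, normalized to 250 μM tetracaine and DMSO.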

[1] = resting state block (P1 measurement), read-out: P1IC50
[2] = inactivated state block (P2 measurement), read-out: P2IC50

T1 sequence (Q9Y5Y9 whole entry): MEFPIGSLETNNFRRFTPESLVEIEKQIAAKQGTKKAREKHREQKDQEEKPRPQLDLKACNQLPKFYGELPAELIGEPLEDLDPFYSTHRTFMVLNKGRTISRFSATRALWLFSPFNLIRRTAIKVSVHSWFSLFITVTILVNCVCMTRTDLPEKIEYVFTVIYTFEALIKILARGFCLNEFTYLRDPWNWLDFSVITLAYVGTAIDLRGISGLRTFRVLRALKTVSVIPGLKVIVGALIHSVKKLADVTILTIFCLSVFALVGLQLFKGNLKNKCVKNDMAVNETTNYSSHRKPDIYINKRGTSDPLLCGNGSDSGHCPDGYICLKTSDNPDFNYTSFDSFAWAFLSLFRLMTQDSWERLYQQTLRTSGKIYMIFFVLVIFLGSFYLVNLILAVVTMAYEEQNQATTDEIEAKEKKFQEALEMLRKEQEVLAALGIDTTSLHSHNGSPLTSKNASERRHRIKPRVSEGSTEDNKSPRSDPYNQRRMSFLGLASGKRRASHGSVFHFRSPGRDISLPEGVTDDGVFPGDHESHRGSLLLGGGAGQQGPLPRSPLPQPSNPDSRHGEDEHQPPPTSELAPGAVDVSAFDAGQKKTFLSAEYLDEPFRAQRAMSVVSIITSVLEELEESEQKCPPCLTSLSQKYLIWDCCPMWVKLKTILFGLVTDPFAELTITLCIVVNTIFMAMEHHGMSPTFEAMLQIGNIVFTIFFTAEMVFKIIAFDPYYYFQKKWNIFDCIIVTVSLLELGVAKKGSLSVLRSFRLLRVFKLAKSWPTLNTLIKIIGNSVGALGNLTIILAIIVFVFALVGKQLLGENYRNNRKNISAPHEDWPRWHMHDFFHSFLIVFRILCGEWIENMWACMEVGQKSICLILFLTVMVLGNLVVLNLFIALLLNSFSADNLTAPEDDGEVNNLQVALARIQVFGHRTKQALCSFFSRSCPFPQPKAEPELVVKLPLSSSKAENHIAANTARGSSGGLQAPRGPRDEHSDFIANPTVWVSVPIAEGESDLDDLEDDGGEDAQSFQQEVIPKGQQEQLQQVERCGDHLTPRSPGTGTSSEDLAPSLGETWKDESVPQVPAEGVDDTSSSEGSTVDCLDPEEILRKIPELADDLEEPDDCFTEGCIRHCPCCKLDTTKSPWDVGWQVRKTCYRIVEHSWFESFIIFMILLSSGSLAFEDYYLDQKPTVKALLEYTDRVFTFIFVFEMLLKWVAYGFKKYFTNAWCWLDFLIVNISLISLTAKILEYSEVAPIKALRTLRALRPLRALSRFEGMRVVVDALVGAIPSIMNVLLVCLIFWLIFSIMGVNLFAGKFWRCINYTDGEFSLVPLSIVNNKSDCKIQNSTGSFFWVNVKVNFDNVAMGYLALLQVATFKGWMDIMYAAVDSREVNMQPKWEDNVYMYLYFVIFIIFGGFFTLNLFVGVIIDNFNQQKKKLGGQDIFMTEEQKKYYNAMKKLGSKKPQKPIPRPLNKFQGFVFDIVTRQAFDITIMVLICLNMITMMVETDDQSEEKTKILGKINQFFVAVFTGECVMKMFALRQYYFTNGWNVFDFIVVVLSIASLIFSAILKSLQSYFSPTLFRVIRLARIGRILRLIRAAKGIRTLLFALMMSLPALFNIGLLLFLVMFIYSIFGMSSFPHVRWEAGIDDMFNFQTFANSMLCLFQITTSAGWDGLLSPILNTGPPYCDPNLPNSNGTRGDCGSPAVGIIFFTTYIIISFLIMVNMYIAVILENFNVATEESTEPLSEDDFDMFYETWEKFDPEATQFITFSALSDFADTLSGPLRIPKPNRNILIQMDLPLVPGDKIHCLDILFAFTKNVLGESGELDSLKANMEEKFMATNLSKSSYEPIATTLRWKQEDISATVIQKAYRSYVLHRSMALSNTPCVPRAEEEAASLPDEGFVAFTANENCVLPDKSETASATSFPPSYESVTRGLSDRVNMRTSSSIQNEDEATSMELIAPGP

Row | SMILES | IC50 [1] | IC50 [2]
1 | COC(=O)C12CC(NC(=O)c3cc(C(F)(F)F)cnc3Oc3ccc(F)c(F)c3OC)(C1)C2 [Compound 1679] | 200 to 500 nM | 200 to 500 nM
2 | Cc1cc(F)ccc1Oc1nnc(C(F)(F)F)c(-c2cnn(C)c2)c1C(=O)Nc1cccc([S@@](C)(=N)=O)c1 [Compound 1521, (S)-3-(4-fluoro-2-methylphenoxy)-5-(1-methyl-1H-pyrazol-4-yl)-N-(3-(S-methylsulfonimidoyl)phenyl)-6-(trifluoromethyl)pyridazine-4-carboxamide] | 200 to 500 nM | 200 to 500 nM
3 | CS(=N)(=O)c1cccc(NC(=O)c2cc(C(F)(F)F)cnc2Oc2cnc(C(F)(F)F)nc2)c1 (stereo not drawn) [Compound 1696] | 200 to 500 nM | 200 to 500 nM
4 | COc1cc(C#N)ccc1Oc1nnc(-c2ccccc2F)c(C)c1C(=O)Nc1cccc(S(C)(=N)=O)c1 (stereo not drawn) [Compound 1452, 3-(4-cyano-2-methoxy-phenoxy)-6-(2-fluorophenyl)-5-methyl-N-[3-(methylsulfonimidoyl)phenyl]pyridazine-4-carboxamide] | 40 to 200 nM | 40 to 200 nM
5 | COc1cc(C#N)ccc1Oc1nnc(C(F)(F)F)c(C)c1C(=O)Nc1cccc(C(=O)NC2CCCC2C#N)c1 (stereo not drawn) [Compound 1445, N-[3-[(2-cyanocyclopentyl)carbamoyl]phenyl]-3-(4-cyano-2-methoxy-phenoxy)-5-methyl-6-(trifluoromethyl)pyridazine-4-carboxamide] | 200 to 500 nM | 200 to 500 nM
6 | COc1ccc(Oc2ncc(C(F)(F)F)cc2C(=O)Nc2cccc(S(C)(=N)=O)c2)cc1C#N (stereo not drawn) [Compound 1591] | 200 to 500 nM | 200 to 500 nM
7 | COCCNS(=O)(=O)c1cccc(NC(=O)c2c(Oc3ccc(C#N)cc3OC)nnc(C(F)(F)F)c2C)c1 [Compound 1439, 3-(4-cyano-2-methoxy-phenoxy)-N-[3-(2-methoxyethylsulfamoyl)phenyl]-5-methyl-6-(trifluoromethyl)pyridazine-4-carboxamide] | 40 to 200 nM | 40 to 200 nM

Other lines, results leading:

Row | IC50 [1] | IC50 [2] | SMILES
8 | ≤ 20 nM | – | COc1c(Oc2nnc(C(F)(F)F)c(C)c2C(=O)Nc2cccc(S(C)(=N)=O)c2)ccc(F)c1F (single isomer, unassigned) [Compound 1474, 3-(3,4-difluoro-2-methoxy-phenoxy)-5-methyl-N-[3-(methylsulfonimidoyl)phenyl]-6-(trifluoromethyl)pyridazine-4-carboxamide]
9 | 40 to 200 nM | 40 to 200 nM | CS(=N)(=O)c1cccc(NC(=O)c2cc(C(F)(F)F)cnc2OC2CC(C(F)(F)F)C2)c1 (mixture of isomers) [Compound 1666]
10 | 40 to 200 nM | 40 to 200 nM | NC(=O)c1cccc(NC(=O)c2cc(C(F)(F)F)cnc2Oc2ccc(OC(F)F)cc2)c1 [Compound 1635]
11 | 40 to 200 nM | 40 to 200 nM | Cc1cc(F)ccc1Oc1nnc(C(F)(F)F)c(C)c1C(=O)Nc1ccnc(C(N)=O)c1 [Compound 1408]
12 | 20 to 40 nM | 20 to 40 nM | COc1ccc(-c2nnc(Oc3ccc(C#N)cc3OC)c(C(=O)Nc3cccc([S@](C)(=N)=O)c3)c2C)cc1 [Compound 1535, 3-(4-cyano-2-methoxyphenoxy)-N-{3-[(R)-imino(methyl)oxo-λ^6-sulfanyl]phenyl}-6-(4-methoxyphenyl)-5-methylpyridazine-4-carboxamide]
13 | 20 to 40 nM | 20 to 40 nM | CS(=O)(=O)c1cccc(NC(=O)c2cc(C(F)(F)F)cnc2Oc2ccc(OC(F)F)cc2)c1 [Compound 1563, 2-[4-(difluoromethoxy)phenoxy]-N-(3-methylsulfonylphenyl)-5-(trifluoromethyl)pyridine-3-carboxamide]
14 | ≤ 20 nM | ≤ 20 nM | Cc1c(C(F)(F)F)nnc(Oc2ccc(OC3CCC3)c(F)c2F)c1C(=O)Nc1cccc(S(C)(=O)=O)c1 [Compound 1426]
